# In patent US7276532B2, “Remedies for vesical hyperactivity” (Kyowa Hakko Kogyo Co., Ltd., priority 2001, dated 2007):
# What was measured:
# spinal cord-injured rats = assay: Inhibitory activity on detrusor hyperreflexia (cystometry test); format: in vivo, rat; conditions: average ± standard error
# Procedure: The experiment was carried out according to the method of Cheng, et al. [Brain Res., Vol. 678, pp. 40-48 (1995)].
# Female SD rats of 8 to 10 weeks of age (supplied by Japan SLC) were used in the test. Five to seven animals of these rats were put in each metal cage and reared by allowing them to freely take commercially available chow and water, in an animal room at room temperature between 19 and 25° C. and humidity between 30 and 70% under illumination for 12 hours (from 7:00 a.m. to 7:00 p.m.) per day.
# An operation of spinal cord injury was performed in the rats. Each animal was anesthetized with diethyl ether and the skin of the back side thoracic cord part was incised. A laminectomy at the 7th to 8th thoracic vertebrae level was performed. Then, the thoracic cord at the T7-T8 segments was macroscopically cut and a section of spinal cord (about 5 mm) was removed, and the wound cavity of the removed part was filled with oxidized regenerated cellulose for hemostasis. The incised part was sutured with a surgical silk. After the spinal cord injury operation, urine was expressed manually twice per day (at 8:00-9:00 and 18:00-19:00) for about 3 weeks until autonomic micturition developed. An antibiotic (ampicillin, Sigma. Chemical Co.) was intramuscularly administered to the animals at a dose of 150 mg/kg once to twice per day for about 2 weeks.
# Four to five weeks after the spinal cord injury, the rats were subjected to bladder catheterization. Under diethyl ether anesthesia, the bladder was exposed by midline incision of the abdomen. […] The bladder catheter was fixed with a surgical silk ligature and indwelled. The other end of the catheter was exposed subcutaneously from the back of the neck, plugged and then fixed to the skin with a surgical thread.
# Four to six days after the bladder catheterization, a cystometry test was performed. The rats were put in a Bollman cage (Natsume Seisakusho Co., Ltd.) and a three-way cock was connected to the bladder catheter, one end of the cock was connected to a pressure transducer (Nihon Kohden Corp.) and the other end was connected to a 50-mL syringe (Terumo Corp.) arranged to an infusion pump (Harvard Apparatus, Inc.) for physiological saline infusion. The intravesical pressure signal from the pressure transducer was amplified with a strain pressure amplifier (AP-601G, Nihon Kohden Corp.) connected thereto, and was recorded on a thermal array recorder (RTA-1200, Nihon Kohden Corp.) via a polygraph system (RMP-6008, Nihon Kohden Corp.) containing the above amplifier. Sixty to ninety minutes after the completion of the preparation for the measurement, a room temperature physiological saline was infused into the bladder at a flow rate of 10 mL/h for 30 minutes, the occurence of micturition contractions was confirmed. Thirty minutes later, the infusion of physiological saline was carried out again for 30 minutes, and the intravesical pressure was measured to be used as the pre-administration value. Each of Compounds 1 to 6 was suspended in a 0.5 w/v % aqueous solution of methylcellulose at a concentration of 1 mg/mL suspension. The suspension was further diluted with a 0.5 w/v % aqueous solution of methylcellulose to prepare a suspension or solution for the administration at the intended concentration, which was then orally administered to the animals at a volume of 1 mL/kg. The period of 1, 3 and 5 hours after the dosing was used as the measuring time after the administration of the solvent or a compound tested, and the intravesical infusion of a physiological saline was carried out during a duration of 15 minutes around each measuring time (i.e. from 45 to 75 minutes, from 165 to 195 minutes and from 285 to 315 minutes after the administration of the compound).
# Micturition contraction was measured as an index of the voiding function and pre-micturition contraction was measured as an index of detrusor hyperreflexia. […]
# [1] = tested on: rats with bladder hypertrophy; assay: Inhibitory activity on detrusor instability (cystometry test after partial urethral obstruction); format: in vivo, rat; conditions: average ± standard error
# Procedure: The experiment was carried out according to the method of Malmgren, et al. [J. Urol., Vol. 142, pp. 1134-1138 (1989)].
# Female SD rats of 8 to 10 weeks of age (supplied by Japan SLC) were used in the test. Five to seven animals of these rats were put in each metal cage and reared by allowing them to freely take commercially available chow and water, in an animal room at room temperature between 19 and 25° C. and humidity between 30 and 70% under illumination for 12 hours (7:00 a.m.-7:00 p.m.) per day.
# The rats were subjected to operation of partial urethral obstruction. Each animal was anesthetized by intraperitoneal administration of 50 mg/kg pentobarbital sodium (Dainippon Pharmaceutical Co., Ltd.), and the midline incision of the skin and muscle was made in the lower abdomen. A polyethylene tube (PE-20, Nippon Becton Dickinson Co., Ltd.) was inserted into urethra from the urethral to the bladder neck. After the proximal urethra was peeled and double-ligated, the polyethylene tube was pulled out to cause partial urethral obstruction. The incised part was-sutured with a surgical silk thread. An antibiotic (ampicillin, Sigma Chemical Co.) was intramusclarly administered to the animals at a dose of 150 mg/kg.
# Six weeks after the operation of the partial urethral obstruction, the rats with bladder hypertrophy were subjected to bladder catheterization. Under anesthesia with pentobarbital sodium, the bladder was exposed by midline incision of the abdomen. […] The bladder catheter was fixed with a surgical silk ligature and indwelled. The other end of the catheter was exposed subcutaneously from the back of the neck, plugged and then fixed to the skin with a surgical thread.
# Four to six days after the bladder catheterization, a cystometry test was performed. The rats were put in a Bollman cage (Natsume Seisakusho Co., Ltd.) and a three-way cock was connected to the bladder catheter, one end of the cock was connected to a pressure transducer (Nihon Kohden Corp.) and the other end was connected to a 50-mL syringe (Terumo Corp.) arranged to an infusion pump (Harvard Apparatus, Inc.) for physiological saline infusion. The intravesical pressure signal from the pressure transducer was amplified with a strain pressure amplifier (AP-601G, Nihon Kohden Corp.) connected thereto, and was recorded on a thermal array recorder (RTA-1200, Nihon Kohden Corp.) via a polygraph system (RMP-6008, Nihon Kohden Corp.) containing the above amplifier. Sixty to ninety minutes after the completion of the preparation for the measurement, intravesical infusion of a room temperature physiological saline at a flow rate of 10 mL/h was started and continued until the completion of the test, and the occurrence of micturition contractions and pre-micturition contractions were confirmed. The chart for 30 minutes after 3 hours from the commencement of the saline infusion was used as the values before the drug administration. Each of Compounds 1 to 3 was suspended in a 0.5 w/v % aqueous solution of methylcellulose at a concentration of 1 mg/mL. The suspension was further diluted with a 0.5 w/v % aqueous solution of methylcellulose to prepare a suspension or solution for the administration at the intended concentration. This was then orally administered to the animals at a volume of 1 mL/kg. The period of 1, 3 and 5 hours after the dosing was used as the measuring time after the administration of the solvent or a compound tested, and a duration of 15 minutes around each measuring time (45 to 75 minutes, 165 to 195 minutes and 285 to 315 minutes after the administration of the compound) was used as the measuring period.
# Micturition contraction was used as an index of the voiding function and pre-micturition contraction was measure as an index of detrusor instability. […]
# dd male mice = assay: Acute toxicity test; format: in vivo; conditions: oral administration, mortality on the seventh day after administration
# Procedure: The test compound was administered orally or intraperitoneally to 3 animals per group of dd male mice (body weight: 20±1 g). The minimum lethal dose (MLD) value was obtained by observing mortality on the seventh day after the administration calculated.
structure (smiles),measurement,setting,value
C[C@](O)(C(=O)Nc1cccc2c1C(=O)c1sccc1CS2(=O)=O)C(F)(F)F [Compound 1],"micturition contractions (relative value, before administration = 100)","spinal cord-injured rats; 0.001 mg/kg p.o., after 1 hr.",106.5 ± 11.3%
same,"pre-micturition contractions (relative value, before administration = 100)","spinal cord-injured rats; 0.001 mg/kg p.o., after 1 hr.",83.5 ± 6.8%
same,"micturition contractions (relative value, before administration = 100)","spinal cord-injured rats; 0.001 mg/kg p.o., after 3 hrs.",101.7 ± 9.5%
same,"pre-micturition contractions (relative value, before administration = 100)","spinal cord-injured rats; 0.001 mg/kg p.o., after 3 hrs.",95.4 ± 12.0%
same,"micturition contractions (relative value, before administration = 100)","spinal cord-injured rats; 0.001 mg/kg p.o., after 5 hrs.",103.1 ± 6.5%
same,"pre-micturition contractions (relative value, before administration = 100)","spinal cord-injured rats; 0.001 mg/kg p.o., after 5 hrs.",105.5 ± 20.8%
same,"micturition contractions (relative value, before administration = 100)","spinal cord-injured rats; 0.01 mg/kg p.o., after 1 hr.",114.4 ± 9.5%
same,"pre-micturition contractions (relative value, before administration = 100)","spinal cord-injured rats; 0.01 mg/kg p.o., after 1 hr.",59.6 ± 8.1 %
same,"micturition contractions (relative value, before administration = 100)","spinal cord-injured rats; 0.01 mg/kg p.o., after 3 hrs.",117.6 ± 13.9%
same,"pre-micturition contractions (relative value, before administration = 100)","spinal cord-injured rats; 0.01 mg/kg p.o., after 3 hrs.",51.2 ± 6.7 %
same,"micturition contractions (relative value, before administration = 100)","spinal cord-injured rats; 0.01 mg/kg p.o., after 5 hrs.",117.6 ± 12.7%
same,"pre-micturition contractions (relative value, before administration = 100)","spinal cord-injured rats; 0.01 mg/kg p.o., after 5 hrs.",42.2 ± 7.2 %
same,"micturition contractions (relative value, before administration = 100)","spinal cord-injured rats; 0.1 mg/kg p.o., after 1 hr.",109.3 ± 6.3%
same,"pre-micturition contractions (relative value, before administration = 100)","spinal cord-injured rats; 0.1 mg/kg p.o., after 1 hr.",52.3 ± 9.1 %
same,"micturition contractions (relative value, before administration = 100)","spinal cord-injured rats; 0.1 mg/kg p.o., after 3 hrs.",110.2 ± 5.4%
same,"pre-micturition contractions (relative value, before administration = 100)","spinal cord-injured rats; 0.1 mg/kg p.o., after 3 hrs.",33.3 ± 6.3 %
same,"micturition contractions (relative value, before administration = 100)","spinal cord-injured rats; 0.1 mg/kg p.o., after 5 hrs.",112.4 ± 7.0%
same,"pre-micturition contractions (relative value, before administration = 100)","spinal cord-injured rats; 0.1 mg/kg p.o., after 5 hrs.",28.5 ± 6.2 %
same,"micturition contractions (relative value, before administration = 100)","[1]; 0.001 mg/kg p.o., after 1 hr.",99.3 ± 2.3%
same,"pre-micturition contractions (relative value, before administration = 100)","[1]; 0.001 mg/kg p.o., after 1 hr.",105.9 ± 7.8%
same,"micturition contractions (relative value, before administration = 100)","[1]; 0.001 mg/kg p.o., after 3 hrs.",101.5 ± 3.3%
same,"pre-micturition contractions (relative value, before administration = 100)","[1]; 0.001 mg/kg p.o., after 3 hrs.",100.3 ± 10.0%
same,"micturition contractions (relative value, before administration = 100)","[1]; 0.001 mg/kg p.o., after 5 hrs.",98.7 ± 5.2%
same,"pre-micturition contractions (relative value, before administration = 100)","[1]; 0.001 mg/kg p.o., after 5 hrs.",104.2 ± 10.2%
same,"micturition contractions (relative value, before administration = 100)","[1]; 0.01 mg/kg p.o., after 1 hr.",99.6 ± 1.2%
same,"pre-micturition contractions (relative value, before administration = 100)","[1]; 0.01 mg/kg p.o., after 1 hr.",59.5 ± 4.1 %
same,"micturition contractions (relative value, before administration = 100)","[1]; 0.01 mg/kg p.o., after 3 hrs.",92.6 ± 3.2%
same,"pre-micturition contractions (relative value, before administration = 100)","[1]; 0.01 mg/kg p.o., after 3 hrs.",69.5 ± 4.4 %
same,"micturition contractions (relative value, before administration = 100)","[1]; 0.01 mg/kg p.o., after 5 hrs.",90.1 ± 4.3%
same,"pre-micturition contractions (relative value, before administration = 100)","[1]; 0.01 mg/kg p.o., after 5 hrs.",67.8 ± 5.5 %
same,"micturition contractions (relative value, before administration = 100)","[1]; 0.1 mg/kg p.o., after 1 hr.",106.2 ± 9.2%
same,"pre-micturition contractions (relative value, before administration = 100)","[1]; 0.1 mg/kg p.o., after 1 hr.",55.8 ± 8.2 %
same,"micturition contractions (relative value, before administration = 100)","[1]; 0.1 mg/kg p.o., after 3 hrs.",105.2 ± 9.6%
same,"pre-micturition contractions (relative value, before administration = 100)","[1]; 0.1 mg/kg p.o., after 3 hrs.",66.2 ± 4.7 %
same,"micturition contractions (relative value, before administration = 100)","[1]; 0.1 mg/kg p.o., after 5 hrs.",100.1 ± 8.6%
same,"pre-micturition contractions (relative value, before administration = 100)","[1]; 0.1 mg/kg p.o., after 5 hrs.",69.2 ± 7.4 %
same,minimum lethal dose (MLD),dd male mice,> 1000 mg/kg
